Molecular target: T1, human TREK-1 (Homo sapiens, UniProt O95069)
T1 construct: expressed in transfected cells
T1 sequence (O95069 1-426): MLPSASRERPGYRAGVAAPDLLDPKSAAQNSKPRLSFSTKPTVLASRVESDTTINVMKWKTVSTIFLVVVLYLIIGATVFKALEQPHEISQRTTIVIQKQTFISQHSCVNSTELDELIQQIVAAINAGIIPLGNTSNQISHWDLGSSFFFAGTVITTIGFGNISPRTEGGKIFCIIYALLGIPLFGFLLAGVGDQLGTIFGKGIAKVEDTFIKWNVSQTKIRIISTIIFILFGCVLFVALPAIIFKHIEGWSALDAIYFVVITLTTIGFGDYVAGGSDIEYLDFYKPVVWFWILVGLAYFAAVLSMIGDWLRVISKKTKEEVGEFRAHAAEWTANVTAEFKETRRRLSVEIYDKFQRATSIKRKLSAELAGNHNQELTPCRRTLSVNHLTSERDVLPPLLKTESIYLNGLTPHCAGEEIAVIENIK
Test: TREK-1 Thallium (Tl+) flux assay, Method 1
Format: cell-based
Conditions: TREK-1 Thallium (Tl+) flux assay
Procedure: The term “thallium flux assay” herein refers to a fluorescence-based assay used to monitor the activity of TREK channels. Thallium is a congener of potassium that readily fluxes through the pore of TREK channels. Thallium flux is measured using a commercially available, thallium-sensitive fluorescent dye called Thallos. The detail method is described below.
CHO-K1 cells stably expressing human TREK-1 were plated in 384-well plates, cultured overnight, loaded with Thallos dye the following day. Test compounds or control compound (tert-butyl (3-((4-(benzyloxy)-2-methylphenyl)carbamoyl)-4-chlorophenyl)carbamate) or 0.3% DMSO (vehicle control) which were prepared on separate plates were added to the cell plates and incubated for 10 min, and then the cells were treated with thallium stimulus buffer to initiate thallium flux. To measure the efficacy and potency of test compounds, the change in fluorescence intensity (ΔRatio) and % inhibition were calculated using the following equations:
ΔRatio=(fluorescence intensity at 25 seconds after thallium addition)/(average of fluorescent intensity before thallium addition)

[1] = no *^12 (Method 2) mark on these rows
[2] = values without footnote *12 are Method 1

Compound | IC50 [1] [nM] | IC50 [2] [nM]
4-chloro-1-[(2s,4r)-6-(cyclopropanecarbonyl)-6-azaspiro[3.4]octan-2-yl]-N-{5-[(4-fluorophenyl)ethynyl]-3-methylpyridin-2-yl}-1H-pyrazole-5-carboxamide or 4-chloro-1-[(2r,4s)-6-(cyclopropanecarbonyl)-6-azaspiro[3.4]octan-2-yl]-N-{5-[(4-fluorophenyl)ethynyl]-3-methylpyridin-2-yl}-1H-pyrazole-5-carboxamide [Compound 362] | 910 | –
Cc1cc(C#Cc2ccccc2)cnc1NC(=O)c1c(Cl)cnn1C[C@H]1C[C@@H]2CC[C@H]1O2 (racemic) [Compound 259, 4-chloro-N-[3-methyl-5-(phenylethynyl)pyridin-2-yl]-1-{[(1S,2S,4R)-7-oxabicyclo[2.2.1]heptan-2-yl]methyl}-1H-pyrazole-5-carboxamide and 4-chloro-N-[3-methyl-5-(phenylethynyl)pyridin-2-yl]-1-{[(1R,2R,4S)-7-oxabicyclo[2.2.1]heptan-2-yl]methyl}-1H-pyrazole-5-carboxamide] | 430 | –
O=C(Nc1ncc(C#Cc2ccccc2)cc1F)c1c(Cl)cnn1C[C@@H]1C[C@H]2CC[C@@H]1O2 (racemic) [Compound 319, 4-chloro-N-[3-fluoro-5-(phenylethynyl)pyridin-2-yl]-1-{[(1S,2S,4R)-7-oxabicyclo[2.2.1]heptan-2-yl]methyl}-1H-pyrazole-5-carboxamide and 4-chloro-N-[3-fluoro-5-{[(1R,2R,4S)-7-oxabicyclo[2.2.1]heptan-2-yl)methyl}-1H-pyrazole-5-carboxamide] | 620 | –
CC(=O)N1CC[C@H](n2ncc(Cl)c2C(=O)Nc2ncc(C#Cc3ccccc3)cc2C)C[C@@H]1C (single isomer, unassigned) [Compound 31, 1-[(2S,4S)-1-acetyl-2-methylpiperidin-4-yl]-4-chloro-N-[3-methyl-5-(phenylethynyl)pyridin-2-yl]-1H-pyrazole-5-carboxamide or 1-[(2R,4R)-1-acetyl-2-methylpiperidin-4-yl]-4-chloro-N-[3-methyl-5-(phenylethynyl)pyridin-2-yl]-1H-pyrazole-5-carboxamide] | – | 100
CC(=O)N1CC[C@@H](n2ncc(Cl)c2C(=O)Nc2ncc(C#Cc3ccccc3)cc2C)C[C@@H]1C (single isomer, unassigned) [Compound 86, 1-[(2S,4R)-1-acetyl-2-methylpiperidin-4-yl]-4-chloro-N-[3-methyl-5-(phenylethynyl)pyridin-2-yl]-1H-pyrazole-5-carboxamide or 1-[(2R,4S)-1-acetyl-2-methylpiperidin-4-yl]-4-chloro-N-[3-methyl-5-(phenylethynyl)pyridin-2-yl]-1H-pyrazole-5-carboxamide] | – | 170
CC(=O)N1CC[C@H](n2ncc(Cl)c2C(=O)Nc2ncc(C#Cc3ccccc3)cc2C)C[C@@H]1C (single isomer, unassigned) [Compound 114, 1-[(2S,4S)-1-acetyl-2-methylpiperidin-4-yl]-4-chloro-N-[3-methyl-5-(phenylethynyl)pyridin-2-yl]-1H-pyrazole-5-carboxamide or 1-[(2R,4R)-1-acetyl-2-methylpiperidin-4-yl]-4-chloro-N-[3-methyl-5-(phenylethynyl)pyridin-2-yl]-1H-pyrazole-5-carboxamide] | – | 200
CC(=O)N1CCC(C(C)n2ncc(Cl)c2C(=O)Nc2ncc(C#Cc3ccccc3)cc2C)CC1 (single isomer, unassigned) [Compound 197, 1-[(1R)-1-(1-acetylpiperidin-4-yl)ethyl]-4-chloro-N-[3-methyl-5-(phenylethynyl)pyridin-2-yl]-1H-pyrazole-5-carboxamide or 1-[(1S)-1-(1-acetylpiperidin-4-yl)ethyl]-4-chloro-N-[3-methyl-5-(phenylethynyl)pyridin-2-yl]-1H-pyrazole-5-carboxamide] | 300 | –
CC(=O)N1CC[C@@H](n2ncc(Cl)c2C(=O)Nc2ncc(C#Cc3ccccc3)cc2C)C[C@@H]1C (single isomer, unassigned) [Compound 261, 1-[(2S,4R)-1-acetyl-2-methylpiperidin-4-yl]-4-chloro-N-[3-methyl-5-(phenylethynyl)pyridin-2-yl]-1H-pyrazole-5-carboxamide or 1-[(2R,4S)-1-acetyl-2-methylpiperidin-4-yl]-4-chloro-N-[3-methyl-5-(phenylethynyl)pyridin-2-yl]-1H-pyrazole-5-carboxamide] | 430 | –
Cc1cc(C#Cc2ccc(F)cc2)cnc1NC(=O)c1c(Cl)cnn1C1CC2(CCN(C(=O)C3CC3)C2)C1 (single isomer, unassigned) [Compound 363, 4-chloro-1-[(2s,4r)-6-(cyclopropanecarbonyl)-6-azaspiro[3.4]octan-2-yl]-N-{5-[(4-fluorophenyl)ethynyl]-3-methylpyridin-2-yl}-1H-pyrazole-5-carboxamide or 4-chloro-1-[(2r,4s)-6-(cyclopropanecarbonyl)-6-azaspiro[3.4]octan-2-yl]-N-{5-[(4-fluorophenyl)ethynyl]-3-methylpyridin-2-yl}-1H-pyrazole-5-carboxamide] | 910 | –
CC(=O)N1CCC(n2ncc(Cl)c2C(=O)Nc2ncc(C#Cc3ccccc3F)cc2C)C(F)C1 (stereo in doubt) [Compound 159, 1-((3R,4R)-1-acetyl-3-fluoropiperidin-4-yl)-4-chloro-N-(5-((2-fluorophenyl)ethynyl)-3-methylpyridin-2-yl)-1H-pyrazole-5-carboxamide] | – | 250
CC(=O)N1CCC(n2ncc(Cl)c2C(=O)Nc2ncc(C#Cc3ccc(F)cc3)cc2F)[C@H](F)C1 (stereo in doubt) [Compound 213, 1-((3R,4R)-1-acetyl-3-fluoropiperidin-4-yl)-4-chloro-N-(3-fluoro-5-((4-fluorophenyl)ethynyl)pyridin-2-yl)-1H-pyrazole-5-carboxamide] | 330 | –
Cc1cc(C#Cc2ccccc2)cnc1NC(=O)c1c(Cl)cnn1C1CCN(C(=O)OC(C)(C)C)C[C@H]1F (stereo in doubt) [Compound 336, tert-butyl (3R,4R)-4-(4-chloro-5-((3-methyl-5-(phenylethynyl)pyridin-2-yl)carbamoyl)-1H-pyrazol-1-yl)-3-fluoropiperidine-1-carboxylate] | 710 | –
CC(=O)N1CCC(n2ncc(Br)c2C(=O)Nc2ncc(C#Cc3ccccc3)cc2C)CC1 [Compound 17, 1-(1-acetylpiperidin-4-yl)-4-bromo-N-(3-methyl-5-(phenylethynyl)pyridin-2-yl)-1H-pyrazole-5-carboxamide] | – | 40
CC(=O)N1CCC(n2ncc(Cl)c2C(=O)Nc2ncc(C#Cc3cccs3)cc2F)CC1 [Compound 18, 1-(1-acetylpiperidin-4-yl)-4-chloro-N-(3-fluoro-5-(thiophen-2-ylethynyl)pyridin-2-yl)-1H-pyrazole-5-carboxamide] | – | 60
CC(=O)N1CCC(n2ncc(Cl)c2C(=O)Nc2ncc(C#Cc3cccs3)cc2C)CC1 [Compound 19, 1-(1-acetylpiperidin-4-yl)-4-chloro-N-(3-methyl-5-(thiophen-2-ylethynyl)pyridin-2-yl)-1H-pyrazole-5-carboxamide] | – | 60
CC(=O)N1CC[C@@H](n2ncc(Cl)c2C(=O)Nc2ncc(C#Cc3ccccc3)cc2F)[C@H](F)C1 [Compound 20, 1-((3R,4R)-1-acetyl-3-fluoropiperidin-4-yl)-4-chloro-N-(3-fluoro-5-(phenylethynyl)pyridin-2-yl)-1H-pyrazole-5-carboxamide] | – | 70
Cc1cc(C#Cc2ccccc2)cnc1NC(=O)c1c(Cl)cnn1-c1ccc2c(c1)OCCO2 [Compound 21, 4-chloro-1-(2,3-dihydrobenzo[b][1,4]dioxin-6-yl)-N-(3-methyl-5-(phenylethynyl)pyridin-2-yl)-1H-pyrazole-5-carboxamide] | – | 70
Cc1cc(C#Cc2ccccc2)cnc1NC(=O)c1c(Cl)cnn1-c1ccc2c(cnn2C)c1 [Compound 22, 4-chloro-1-(1-methyl-1H-indazol-5-yl)-N-(3-methyl-5-(phenylethynyl)pyridin-2-yl)-1H-pyrazole-5-carboxamide] | – | 80
O=C(Nc1ncc(C#Cc2ccc(F)cc2)cc1F)c1c(Cl)cnn1[C@H]1CC[C@@H](NC(=O)C2COCCO2)CC1 (stereo partly drawn) [Compound 23, 1-(cis-4-(1,4-dioxane-2-carboxamido)cyclohexyl)-4-chloro-N-(3-fluoro-5-((4-fluorophenyl)ethynyl)pyridin-2-yl)-1H-pyrazole-5-carboxamide] | – | 80
CC(=O)N1CCC(n2ncc(Cl)c2C(=O)Nc2ncc(C#Cc3cccc(F)c3)cc2F)CC1 [Compound 25, 1-(1-acetylpiperidin-4-yl)-4-chloro-N-(3-fluoro-5-((3-fluorophenyl)ethynyl)pyridin-2-yl)-1H-pyrazole-5-carboxamide] | – | 90
CC(=O)N1CCCC(n2ncc(Cl)c2C(=O)Nc2ncc(C#Cc3ccccc3)cc2F)CC1 (stereo not drawn) [Compound 26] | – | 90

Reference: patent US20240182445A1 (ONO PHARMACEUTICAL CO., LTD., priority 2019, published 2024)
